# Publication PMC6018746, “Activation of the p53-MDM4 regulatory axis defines the anti-tumour response to PRMT5 inhibition through its role in regulating cellular splicing” (Scientific Reports, 2018)
# Where two headings read alike, the source gives them in different places.
# Test system: panel of 240 cancer cell lines
# Assay: 10-day growth/death assay (Eurofins panel)
# Format: cell-based
# Settings: Homo sapiens, read-out: gIC50
# Text: To further develop these molecules and to guide clinical strategy, it was necessary to understand sensitivity in preclinical models by assessing the anti-tumour activity of the PRMT5 inhibitors in various cancers. […] Lymphoma, including MCL and diffuse large B-cell lymphoma (DLBCL), breast, and multiple myeloma cell lines were among the most sensitive tumour types and had gIC50 values in the low nM range (Fig. 1B). […] Since lymphoma and breast cancer cell lines were among the most sensitive in the proliferation screens, subsequent mechanistic studies were performed in these tumour types.
smiles,measurement,setting,value
O=C(NC[C@H](O)CN1CCc2ccccc2C1)c1ccnc(NC2CCC2)c1 [GSK3203591],IC50,"22Rv1, 22Rv1",2480 nM
same,IC50,639-V,342 nM
same,IC50,647-V,62 nM
same,IC50,769-P,203 nM
same,IC50,"786-0, 786-O",20.3 nM
same,IC50,5637.000,285 nM
same,IC50,A7,36.7 nM
same,IC50,A101D,190 nM
same,IC50,"A 172, A172",29.6 nM
same,IC50,"A204, A204",223 nM
same,IC50,"A498, A498",50.7 nM
same,IC50,"A549, A549",80.9 nM
same,IC50,"A673, A-673",119 nM
same,IC50,"A-375, A375",79.6 nM
same,IC50,"A-431, A431",549 nM
same,IC50,ACHN,38.6 nM
same,IC50,AGS,2030 nM
same,IC50,"AN3-CA, AN3 CA",254 nM
same,IC50,"ARH-77, ARH-77",44.4 nM
same,IC50,"ASPC1, AsPC-1",302 nM
same,IC50,"AU565, AU565",14.6 nM
same,IC50,"BC1, BC-1",69.6 nM
same,IC50,"BE(2)-C, BE(2)C",803 nM
same,IC50,"BFTC-905, BFTC-905",259 nM
same,IC50,"BPH-1, BPH1",718 nM
same,IC50,"BT-20, BT20",2280 nM
same,IC50,"BT-474, BT474",172 nM
same,IC50,"BT-549, BT-549",59.4 nM
same,IC50,"BV-173, BV-173",10.6 nM
same,IC50,"BXPC-3, BxPC-3",160 nM
same,IC50,BeWo,1090 nM
same,IC50,"C32, C32",14.1 nM
same,IC50,"C-4-II, C-4 II",266 nM
same,IC50,C-4I,139 nM
same,IC50,"C-33-A, C-33A",228 nM
same,IC50,"CAKI-1, Caki-1",68.8 nM
same,IC50,"CAKI-2, Caki-2",114 nM
same,IC50,"CAL-27, Cal 27",103 nM
same,IC50,"CAL-62, CAL-62",253 nM
same,IC50,"CAMA-1, CAMA-1",78.9 nM
same,IC50,"CAPAN-1, Capan-1",370 nM
same,IC50,"CCF-STTG1, CCF-STTG1",115 nM
same,IC50,"CCRF-CEM, CCRFCEM",3140 nM
same,IC50,"CEM/C1, CEM-C1",7.92 nM
same,IC50,"CFPAC-1, CFPAC-1",52.3 nM
same,IC50,"CGTH-W-1, CGTH-W-1",82.2 nM
same,IC50,"CHL-1, CHL-1",247 nM
same,IC50,"CHP-212, CHP-212",24 nM
same,IC50,"CML-T1, CML-T1",16.1 nM
same,IC50,"COLO 201, Colo 201",49.6 nM
same,IC50,"COLO 205, Colo 205",> 10000 nM
same,IC50,COLO 320DM,82.5 nM
same,IC50,"COLO-320-HSR, Colo 320 HSR",80.3 nM
same,IC50,"COLO-829, COLO 829",54.4 nM
same,IC50,"COR-L23, COR-L23",147 nM
same,IC50,"COR-L105, COR-L105",314 nM
same,IC50,"CRO-AP2, CRO-AP2",250 nM
same,IC50,"Calu-1, Calu1",3050 nM
same,IC50,"Caov-3, CaOV3",298 nM
same,IC50,"Capan-2, Capan-2",69.7 nM
same,IC50,"ChaGo-K-1, ChaGoK1",1190 nM
same,IC50,D283 Med,23.5 nM
same,IC50,DB,2.51 nM
same,IC50,DBTRG-05MG,156 nM
same,IC50,DK-MG,89.5 nM
same,IC50,"DLD-1, DLD-1",134 nM
same,IC50,"DMS-114, DMS114",1010 nM
same,IC50,"DOHH-2, DOHH-2",157 nM
same,IC50,Daoy,270 nM
same,IC50,Daudi,142 nM
same,IC50,"Detroit 562, Detroit 562",104 nM
same,IC50,"DoTc2-4510, DoTc2 4510",95.8 nM
same,IC50,"EB-3, EB-3",299 nM
same,IC50,"EFM-19, EFM-19",69.5 nM
same,IC50,"EM-2, EM-2",94 nM
same,IC50,"ES-2, ES-2",106 nM
same,IC50,FaDu,15.4 nM
same,IC50,"G-401, G-401",38.4 nM
same,IC50,"G-402, G-402",99.7 nM
same,IC50,H4,151 nM
same,IC50,"HCT-8, HCT-8",430 nM
same,IC50,"HCT-15, HCT-15",68.4 nM
same,IC50,"HCT-116, HCT-116",166 nM
same,IC50,HEC-1-A,2440 nM
same,IC50,"HEL 92.1.7, HEL-92-1-7",9.02 nM
same,IC50,HLE,174 nM
same,IC50,HLF,87.7 nM
same,IC50,HMCB,666 nM
same,IC50,HOS,223 nM
same,IC50,HPAF-II,154 nM
same,IC50,"HT1197, HT-1197",98.9 nM
same,IC50,"HT-3, HT-3",> 10000 nM
same,IC50,"HT-29, HT-29",95.2 nM
same,IC50,"HT-1080, HT-1080",53.5 nM
same,IC50,"HT-1376, HT1376",297 nM
same,IC50,HT,206 nM
same,IC50,"HUH-6-clone5, HUH-6 Clone 5",361 nM
same,IC50,HeLa,230 nM
same,IC50,"HepG2, HepG2",214 nM
same,IC50,Hs 294T,12.3 nM
same,IC50,Hs 695T,602 nM
same,IC50,"Hs746T, HS 746T",171 nM
same,IC50,Hs766T,1120 nM
same,IC50,"Hs-578T, Hs 578T",947 nM
same,IC50,"HuCCT-1, HuCCT1",225 nM
same,IC50,"HuP-T4, HuP-T4",84.9 nM
same,IC50,"J82, J82",83.1 nM
same,IC50,"J-RT3-T3-5, J-RT3-T3-5",43.2 nM
same,IC50,JAR,485 nM
same,IC50,"JEG-3, JEG-3",216 nM
same,IC50,Jurkat,130 nM
same,IC50,"K562, K562",146 nM
same,IC50,KATO III,16.7 nM
same,IC50,KHOS-240S,124 nM
same,IC50,KLE,> 10000 nM
same,IC50,"KPL-1, KPL-1",1330 nM
same,IC50,"L-428, L-428",330 nM
same,IC50,LNCaP,2930 nM
same,IC50,"LS174T, LS-174T",170 nM
same,IC50,MC-IXC,615 nM
same,IC50,"MCF7, MCF7",10.9 nM
same,IC50,"MDA-MB-231, MDA MB 231",56.7 nM
same,IC50,"MDA-MB-436, MDA-MB-436",49.7 nM
same,IC50,"MDA-MB-453, MDA MB 453",64.5 nM
same,IC50,"MDA-MB-468, MDA MB 468",4.83 nM
same,IC50,"MEG-01, MEG01",> 10000 nM
same,IC50,MES-SA,72 nM
same,IC50,"MG-63, MG-63",96 nM
same,IC50,"MHH-PREB-1, MHH-PREB-1",> 10000 nM
same,IC50,"MIA PaCa-2, Mia PaCa-2",158 nM
same,IC50,"MOLT-3, MOLT-3",217 nM
same,IC50,"MOLT-16, MOLT-16",54.2 nM
same,IC50,"MT-3, MT-3",46.4 nM
same,IC50,"MV4-11, MV-4-11",65.8 nM
same,IC50,"MX1, MX1",294 nM
same,IC50,"Malme-3M, MALME3M",265 nM
same,IC50,MeWo,249 nM
same,IC50,"NALM-6, NALM-6",110 nM
same,IC50,"NCI-H69, NCI-H69",144 nM
same,IC50,NCI-H295R,> 10000 nM
same,IC50,"NCI-H441, NCIH441",556 nM
same,IC50,"NCI-H446, NCIH446",570 nM
same,IC50,"NCI-H460, NCI-H460",224 nM
same,IC50,"NCI-H508, NCI-H508",307 nM
same,IC50,"NCI-H520, NCI-H520",15.6 nM
same,IC50,"NCI-H596, NCI-H596",188 nM
same,IC50,"NCI-H661, NCI-H661",152 nM
same,IC50,"NCI-H747, NCI-H747",2580 nM
same,IC50,"OCUG-1, OCUG-1",379 nM
same,IC50,"OE19, OE19",98 nM
same,IC50,"OE33, OE33",231 nM
same,IC50,"OVCAR-3, OVCAR3",51.4 nM
same,IC50,"PANC-1, PANC-1",165 nM
same,IC50,"PC-3, PC-3",873 nM
same,IC50,RD,639 nM
same,IC50,RKO,772 nM
same,IC50,"RKOAS451, RKO-AS45-1",113 nM
same,IC50,"RKOE6, RKOE6",210 nM
same,IC50,"RL95-2, RL95-2",218 nM
same,IC50,"RPMI-6666, RPMI 6666",748 nM
same,IC50,"RPMI-7951, RPMI-7951",44.2 nM
same,IC50,"RPMI-8226, RPMI 8226",58.4 nM
same,IC50,Raji,24.5 nM
same,IC50,"Ramos, Ramos (RA 1)",546 nM
same,IC50,"SAOS-2, SaOS2",48.2 nM
same,IC50,"SCC-4, SCC-4",286 nM
same,IC50,"SCC-9, SCC-9",747 nM
same,IC50,"SCC-25, SCC-25",273 nM
same,IC50,SCaBER,123 nM
same,IC50,"SH-4, SH-4",75.2 nM
same,IC50,"SJRH30, SJRH30",472 nM
same,IC50,"SK-BR-3, SK-BR-3",76.4 nM
same,IC50,"SK-LMS-1, SK-LMS-1",113 nM
same,IC50,"SK-MEL3, SK-MEL-3",181 nM
same,IC50,"SK-MEL-1, SK-MEL-1",38.7 nM
same,IC50,"SK-MEL-28, SK-MEL-28",239 nM
same,IC50,"SK-MES-1, SKMES1",807 nM
same,IC50,SK-N-AS,31.9 nM
same,IC50,SK-N-DZ,257 nM
same,IC50,SK-N-FI,308 nM
same,IC50,"SK-NEP-1, SK-NEP-1",264 nM
same,IC50,"SK-OV-3, SKOV3",52.6 nM
same,IC50,"SK-UT-1, SK-UT-1",42.1 nM
same,IC50,"SKO-007, SKO-007",84.4 nM
same,IC50,"SNB-19, SNB-19",223 nM
same,IC50,"SNU1, SNU-1",1040 nM
same,IC50,"SNU-16, SNU-16",34.4 nM
same,IC50,"SNU-423, SNU-423",66 nM
same,IC50,SR,275 nM
same,IC50,"ST486, ST486",101 nM
same,IC50,"SU.86.86, SU.86.86",934 nM
same,IC50,"SW13, SW-13",211 nM
same,IC50,"SW48, SW48",> 10000 nM
same,IC50,"SW480, SW480",413 nM
same,IC50,"SW579, SW579",83.3 nM
same,IC50,"SW684, SW684",1170 nM
same,IC50,"SW837, SW837",102 nM
same,IC50,"SW872, SW872",54 nM
same,IC50,"SW900, SW900",3250 nM
same,IC50,"SW948, SW948",120 nM
same,IC50,"SW 954, SW954",> 10000 nM
same,IC50,"SW1088, SW1088",40.5 nM
same,IC50,"SW1353, SW1353",129 nM
same,IC50,"SW1417, SW1417",773 nM
same,IC50,"SW1463, SW1463",770 nM
same,IC50,"SW1783, SW1783",389 nM
same,IC50,"SW-403, SW403",153 nM
same,IC50,"SW-620, SW620",5640 nM
same,IC50,SiHa,2510 nM
same,IC50,T47D,52.4 nM
same,IC50,T98G,27.3 nM
same,IC50,"T-24, T24",449 nM
same,IC50,"TCC-SUP, TCCSUP",235 nM
same,IC50,"THP-1, Thp1",80.5 nM
same,IC50,"U138-MG, U-138MG",43.3 nM
same,IC50,U266B1,78.5 nM
same,IC50,U-87 MG,67.6 nM
same,IC50,"UMUC3, UM-UC-3",105 nM
same,IC50,"WI-38, Wi38",18.5 nM
same,IC50,WiDr,505 nM
same,IC50,"Y79, Y79",113 nM
same,IC50,YAPC,168 nM
